# Molecular target: T1, Human TRPC6 (Homo sapiens, UniProt Q9Y210)
# T1 construct: expressed in transfected cells
# T1 sequence (Q9Y210 1-931): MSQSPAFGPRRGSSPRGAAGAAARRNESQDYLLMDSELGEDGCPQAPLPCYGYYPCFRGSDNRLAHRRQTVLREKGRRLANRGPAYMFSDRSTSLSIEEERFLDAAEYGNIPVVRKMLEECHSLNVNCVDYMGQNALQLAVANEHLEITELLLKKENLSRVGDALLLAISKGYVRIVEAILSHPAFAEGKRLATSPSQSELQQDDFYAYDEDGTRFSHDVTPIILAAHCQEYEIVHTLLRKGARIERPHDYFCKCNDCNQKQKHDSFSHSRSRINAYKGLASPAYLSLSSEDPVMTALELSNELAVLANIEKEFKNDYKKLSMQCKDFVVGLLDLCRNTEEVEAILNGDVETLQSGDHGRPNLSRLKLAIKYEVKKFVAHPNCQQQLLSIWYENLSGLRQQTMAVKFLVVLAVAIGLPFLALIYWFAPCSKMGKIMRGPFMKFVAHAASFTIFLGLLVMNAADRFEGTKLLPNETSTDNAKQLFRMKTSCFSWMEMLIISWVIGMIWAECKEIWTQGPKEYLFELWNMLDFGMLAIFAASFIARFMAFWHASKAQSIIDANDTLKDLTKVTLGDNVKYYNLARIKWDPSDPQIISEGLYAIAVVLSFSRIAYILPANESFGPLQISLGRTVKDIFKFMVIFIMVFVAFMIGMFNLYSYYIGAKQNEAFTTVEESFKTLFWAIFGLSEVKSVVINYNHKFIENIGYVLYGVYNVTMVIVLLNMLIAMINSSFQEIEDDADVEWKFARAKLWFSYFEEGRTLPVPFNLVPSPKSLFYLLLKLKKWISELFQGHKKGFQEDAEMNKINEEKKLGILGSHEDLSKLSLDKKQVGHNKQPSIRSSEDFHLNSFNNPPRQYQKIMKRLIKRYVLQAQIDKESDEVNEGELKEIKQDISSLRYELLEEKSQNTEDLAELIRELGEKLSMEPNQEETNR
# Assay: Evaluation of TRPC6 channel inhibitory activity (1), FLIPR Calcium 5 Assay Kit, OAG stimulation (Compound Nos. 1-1293)
# Type: cell-based
# Conditions: Human TRPC6 stably-expressing cells, OAG 30 μM, FLIPR Calcium 5 Assay Kit; read-out: Inhibitory activity (pIC50 class) (converted)
# Procedure, shortened: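 Calcium influx read by FLIPR fluorescence in cells stably expressing human TRPC6, dye-loaded 30 min. Compounds preincubated 20 min, then OAG stimulation at 30 μM final. Inhibition fitted by four-parameter logistic regression to give pIC50, reported as +/++/+++ categories.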
row,Structure (SMILES),IC50
1,"Cc1cc(Oc2cc(C#N)ccc2-c2ccc(CCN)cn2)n(C)n1 [compound 299, 4-[5-(2-aminoethyl)pyridin-2-yl]-3-(2,5-dimethylpyrazol-3-yl)oxybenzonitrile]",< 0.01 µM
2,"Cc1cc(Oc2cc(C#N)ccc2-c2ncc(CN)cn2)cc(-c2ccccn2)n1 [compound 572, 4-[5-(aminomethyl)pyrimidin-2-yl]-3-(2-methyl-6-pyridin-2-ylpyridin-4-yl)oxybenzonitrile]",0.01 to 1 µM
3,"Cc1nc(Oc2cc(C#N)ccc2-c2ccc(CCN)nc2)cc(-c2ccccc2)n1 [Compound 75, 4-[6-(2-aminoethyl)pyridin-3-yl]-3-(2-methyl-6-phenylpyrimidin-4-yl)oxybenzonitrile]",0.01 to 1 µM
4,"Cc1cc(Oc2cc(C#N)ccc2-c2ccc(CN)n3cnnc23)cc(N2CCOCC2)n1 [compound 590, 4-[5-(aminomethyl)-[1,2,4]triazolo[4,3-a]pyridin-8-yl]-3-(2-methyl-6-morpholin-4-ylpyridin-4-yl)oxybenzonitrile]",> 1 µM
5,"Cn1nc(C2CC2)cc1Oc1cc(C#N)ccc1-c1cc(CN)cn2cnnc12 [compound 731, 4-[6-(aminomethyl)-[1,2,4]triazolo[4,3-a]pyridin-8-yl]-3-(5-cyclopropyl-2-methylpyrazol-3-yl)oxybenzonitrile]",> 1 µM
6,"CC(C)Nc1cc(Oc2cc(C#N)ccc2-c2ccc(CCN)cn2)n(C)n1 [compound 575, 4-[5-(2-aminoethyl)pyridin-2-yl]-3-[2-methyl-5-(propan-2-ylamino)pyrazol-3-yl]oxybenzonitrile]",< 0.01 µM
7,"N#Cc1ccc(-c2ncc(CN)cn2)c(Oc2cc(Cl)nnc2N2CCCCC2)c1 [compound 816, 4-[5-(aminomethyl)pyrimidin-2-yl]-3-(6-chloro-3-piperidin-1-ylpyridazin-4-yl)oxybenzonitrile]",> 1 µM
8,"COC(=O)c1ccccc1-c1cc(Oc2cc(C#N)ccc2-c2ccc(CCN)cc2)cnn1 [Compound 120, methyl 2-[5-[2-[4-(2-aminoethyl)phenyl]-5-cyanophenoxy]pyridazin-3-yl]benzoate]",< 0.01 µM
9,"CC(C)Cn1cc(Cc2cc(F)ccc2-c2ncc(CN)cn2)cn1 [compound 1223, [2-[4-fluoro-2-[[1-(2-methylpropyl)pyrazol-4-yl]methyl]phenyl]pyrimidin-5-yl]methanamine]",> 1 µM
10,"N#Cc1ccc(-c2ccc(CCN)cn2)c(Oc2nnc(N3CCOCC3)s2)c1 [compound 717, 4-[5-(2-aminoethyl)pyridin-2-yl]-3-[(5-morpholin-4-yl-1,3,4-thiadiazol-2-yl)oxy]benzonitrile]",0.01 to 1 µM
11,"Cn1nc(C2CC2)cc1Oc1cc(C#N)ccc1-c1cc(OCCCN)ccn1 [compound 585, 4-[4-(3-aminopropoxy)pyridin-2-yl]-3-(5-cyclopropyl-2-methylpyrazol-3-yl)oxybenzonitrile]",> 1 µM
12,"Cn1nc(N2CCCC2)cc1Oc1cc(C#N)ccc1-c1ncc(CCN)cn1 [compound 628, 4-[5-(2-aminoethyl)pyrimidin-2-yl]-3-(2-methyl-5-pyrrolidin-1-ylpyrazol-3-yl)oxybenzonitrile]",< 0.01 µM
13,"Cc1nn(CC(C)C)cc1Cc1cc(C#N)ccc1-c1ncc(CCN)cn1 [compound 1199, 4-[5-(2-aminoethyl)pyrimidin-2-yl]-3-[[3-methyl-1-(2-methylpropyl)pyrazol-4-yl]methyl]benzonitrile]",< 0.01 µM
14,"N#Cc1ccc(-c2ccc(CCN)nc2)c(Oc2cc(N3CCCCC3)cnn2)c1 [Compound 81, 4-[6-(2-aminoethyl)pyridin-3-yl]-3-(5-piperidin-1-ylpyridazin-3-yl)oxybenzonitrile]",> 1 µM

# Next, values leading:
row,IC50,Structure (SMILES)
1,< 0.01 µM,"Cn1nc(C2CC2)cc1Oc1cc(C#N)ccc1-c1ncc(CCN)cn1 [compound 317, 4-[5-(2-aminoethyl)pyrimidin-2-yl]-3-(5-cyclopropyl-2-methylpyrazol-3-yl)oxybenzonitrile]"
2,0.01 to 1 µM,"Cc1nc(Oc2cc(C#N)ccc2-n2cc([C@H](O)CN)cn2)cc(-c2ccccn2)n1 [compound 356, 4-[4-[(1S)-2-amino-1-hydroxyethyl]pyrazol-1-yl]-3-(2-methyl-6-pyridin-2-ylpyrimidin-4-yl)oxybenzonitrile]"
3,> 1 µM,"Cc1ccc(-c2cc(Oc3cc(C#N)ccc3-c3ncc(CCN)cn3)cc(C)n2)nn1 [compound 466, 4-[5-(2-aminoethyl)pyrimidin-2-yl]-3-[2-methyl-6-(6-methylpyridazin-3-yl)pyridin-4-yl]oxybenzonitrile]"
4,< 0.01 µM,"Cc1cc(Oc2cc(C#N)ccc2-c2ccc(CC(C)(C)N)cn2)cc(N2CCOCC2)n1 [compound 333, 4-[5-(2-amino-2-methylpropyl)pyridin-2-yl]-3-(2-methyl-6-morpholin-4-ylpyridin-4-yl)oxybenzonitrile]"
5,> 1 µM,"Cc1nc(CN2CCC(F)CC2)cn1Cc1cc(C#N)ccc1-c1ncc(CCN)cn1 [compound 1177, 4-[5-(2-aminoethyl)pyrimidin-2-yl]-3-[[4-[(4-fluoropiperidin-1-yl)methyl]-2-methylimidazol-1-yl]methyl]benzonitrile]"
6,> 1 µM,"Cn1nc(-c2ccccc2)cc1Oc1cc(C#N)ccc1-n1cc(N2CCNCC2=O)cn1 [Compound 217, 3-(2-methyl-5-phenylpyrazol-3-yl)oxy-4-[4-(2-oxopiperazin-1-yl)pyrazol-1-yl]benzonitrile]"
7,0.01 to 1 µM,"Cn1nc(C2CC2)cc1Oc1cc(C#N)ccc1-c1cccn2c(CCN)nnc12 [compound 570, 4-[3-(2-aminoethyl)-[1,2,4]triazolo[4,3-a]pyridin-8-yl]-3-(5-cyclopropyl-2-methylpyrazol-3-yl)oxybenzonitrile]"
8,> 1 µM,"Cc1nc(Oc2cc(C#N)ccc2-c2ccc(C(O)CN3CCCC3)cc2)cc(-c2ccccc2)n1 (stereo not drawn) [Compound 97, 4-[4-(1-hydroxy-2-pyrrolidin-1-ylethyl)phenyl]-3-(2-methyl-6-phenylpyrimidin-4-yl)oxybenzonitrile]"
9,> 1 µM,"Cc1nc(Oc2cc(C#N)ccc2-c2ccc(C(CN)c3cccc(F)c3)cc2)cc(N2CCOCC2)n1 (stereo not drawn) [Compound 61, 4-[4-[2-amino-1-(3-fluorophenyl)ethyl]phenyl]-3-(2-methyl-6-morpholin-4-ylpyrimidin-4-yl)oxybenzonitrile]"
10,> 1 µM,"CC(=O)Nc1cc(Oc2cc(C#N)ccc2-c2ccc([C@H](O)CN)cn2)n(C)n1 [compound 548, N-[5-[2-[5-[(1S)-2-amino-1-hydroxyethyl]pyridin-2-yl]-5-cyanophenoxy]-1-methylpyrazol-3-yl]acetamide]"
11,< 0.01 µM,"Cn1nc(N2CCCC2)cc1Oc1cc(C#N)ccc1-c1ccc(CN)cn1 [compound 622, 4-[5-(aminomethyl)pyridin-2-yl]-3-(2-methyl-5-pyrrolidin-1-ylpyrazol-3-yl)oxybenzonitrile]"
12,0.01 to 1 µM,"Cn1nc(-c2ccccn2)cc1Oc1cc(C#N)ccc1-c1ccc(CN)n2cnnc12 [compound 589, 4-[5-(aminomethyl)-[1,2,4]triazolo[4,3-a]pyridin-8-yl]-3-(2-methyl-5-pyridin-2-ylpyrazol-3-yl)oxybenzonitrile]"
13,< 0.01 µM,"N#Cc1ccc(-c2ccc(CCN)cc2)c(C(=O)c2cnnc(N3CCOCC3)c2)c1 [compound 1079, 4-[4-(2-aminoethyl)phenyl]-3-(6-morpholin-4-ylpyridazine-4-carbonyl)benzonitrile]"

# Source: patent US20230167073A1 (Teijin Pharma Limited, priority 2020, published 2023)
